# Source: US20080280951A1, “Salt Il” (ASTRAZENECA AB, priority 2005, published 2008)
# Read-outs that look alike come from different tables or passages of the source.
# Columns and labels:
# [1] = target: T1, human CCR1 (Homo sapiens, UniProt P32246); test: Human CCR1 binding assay; conditions: HEK-CCR1 membranes, displacement of 33 pM [125I] MIP-1α
# T1 construct: expressed in transfected cells; membrane preparation
# T1 sequence (P32246 1-355): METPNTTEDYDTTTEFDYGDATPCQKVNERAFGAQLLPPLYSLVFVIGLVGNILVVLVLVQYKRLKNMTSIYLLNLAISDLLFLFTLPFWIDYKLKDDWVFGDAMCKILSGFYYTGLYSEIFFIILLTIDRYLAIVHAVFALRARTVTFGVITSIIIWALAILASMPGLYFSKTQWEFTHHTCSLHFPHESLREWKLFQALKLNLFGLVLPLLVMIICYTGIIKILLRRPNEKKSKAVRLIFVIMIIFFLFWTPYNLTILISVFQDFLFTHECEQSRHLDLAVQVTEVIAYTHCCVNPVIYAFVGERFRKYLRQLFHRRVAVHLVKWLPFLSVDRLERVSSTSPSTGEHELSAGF
# Experimental: HEK293 cells, from ECACC, stably expressing recombinant human CCR1 (HEK-CCR1) were used to prepare cell membranes containing CCR1. The membranes were stored at −70° C. The concentration of membranes of each batch was adjusted to 10% specific binding of 33 pM [^125I] MIP-1α.
# 100 μL of HEK-CCR1 membranes diluted in assay buffer pH 7.4 (137 mM NaCl (Merck, Cat No 1.06404), 5.7 mM Glucose (Sigma, Cat No G5400), 2.7 mM KCl (Sigma, Cat No P-9333), 0.36 mM NaH2PO4×H2O (Merck, Cat No 1.06346), 10 mM HEPES (Sigma, Cat No H3375), 0.1% (w/v) Gelatine (Sigma, Cat No G2625)) with the addition of 17500 units/L Bacitracin (Sigma, Cat No B 1025) were added to each well of the 96 well filter plate (0.45 μm opaque Millipore cat no MHVB N4550). […] 12 μl assay buffer with 10% DMSO was added to certain wells (without compound) to detect maximal binding (B0).
# 12 μL [^125I] MIP-1α, diluted in assay buffer to a final concentration in the wells of 33 pM, was added to all wells. The plates with lid were then incubated for 1.5 hrs at room temperature. After incubation the wells were emptied by vacuum filtration (MultiScreen Resist Vacuum Manifold system, Millipore) and washed once with 200 μl assay buffer. After the wash, all wells received an addition of 50 μL of scintillation fluid (OptiPhase “Supermix”, Wallac Oy, Turko, Finland). Bound [^125I] MIP-1α was measured using a Wallac Trilux 1450 MicroBeta counter. […]
# [2] = Estimated solubility of the salt in organic solvents; assay type: physicochemical; conditions: organic solvent or mixture
# Experimental: (a) Form B was prepared by dissolving, in a vial, 20% w of a sample of the furoate salt prepared by the method of Example 1(b) (Form A) in a solvent such as ethanol (16 mg/ml) or 2-butanol (8 mg/ml). The figures in brackets indicate the estimated solubility of the salt in these solvents. The vial was then sealed and the suspension was homogenised at ambient temperature (20° C.) using a magnet. Stirring and temperature were maintained for a period of at least 7 days after which time a sample of the material obtained was dried and tested by XRPD. XRPD confirmed that there had been complete transformation of Form A to Form B.
# [3] = Hygroscopicity determination (vapor sorption); assay type: physicochemical; conditions: room temperature (25° C.)
# Experimental: Hygroscopicity Determination
# The weight change of a test sample at room temperature (25° C.) and at 80% relative humidity (RH) was investigated by recording adsorption-desorption isotherms using a symmetric vapor-sorption analyser SGA-100 (VTI Corporation) using different methods, the main features being: a single sorption/desorption cycle from 0 to 90% RH in 10% RH steps with a dm/dt trigger value of 0.002%, (dm/dt=change in mass with time—when the balance stability is within this value the next step is automatically started, however, if those conditions are not achieved there is a default maximum time for each step of 6 hours). Approximately 2 to 10 mg of the test sample was placed in a sample holder and exposed to different relative humidities.
IC50 [1],"solubility ([2]; solvent 2-butanol, read-out: estimated solubility of the salt in 2-butanol)","solubility ([2]; solvent ethanol, read-out: estimated solubility of the salt in ethanol)",Water Uptake (% w/w) at 80% RH [3],SMILES
< 50 nM,,,,CC(=O)Nc1ccc(O)cc1OC[C@@](C)(O)CNC1CCN(Cc2ccc(Cl)cc2)CC1 [N-{2-[((2S)-3-{[1-(4-chlorobenzyl)piperidin-4-yl]amino}-2-hydroxy-2-methylpropyl)oxy]-4-hydroxyphenyl}acetamide ditrifluoroacetate]
,8 mg/mL,16 mg/mL,<0.8 % w/w,"CC(=O)Nc1ccc(O)cc1OC[C@@](C)(O)CNC1CCN(Cc2ccc(Cl)cc2)CC1 [Form A, N-{2-[((2S)-3-{[1-(4-chlorobenzyl)piperidin-4-yl]amino}-2-hydroxy-2-methylpropyl)oxy]-4-hydroxyphenyl}acetamide furoate]"
